Earlier results on 1 substance are cited in patent US20140288136A1, “METHODS AND USES OF CYTOCHROME P450 INHIBITORS” (ANGION BIOMEDICA CORP, priority 2009, published 2014).

For the data set, the system named is hepatitis C. As to conditions: chronic hepatitis C infection.

Like-named read-outs stand apart in the source and are kept apart here.

In the case of interferon, the response by setting is: (in combination with ribavirin) ~50%; (used alone) ~20%.
